In patent US7244758B2, “N-type calcium channel blockers” (Neuromed Pharmaceuticals Ltd., priority 2003, dated 2007):
Read-outs that look alike come from different tables or passages of the source.

Tests used:
[1] = target: T1, rat brain N-type calcium channel subunits (α1B+α2δ+β1b) (Rattus norvegicus, UniProt Q02294); test: N-type calcium channel block, whole cell patch clamp in HEK 293 cells; assay type: cell-based; details: holding −80 mV to +10 mV, 5 mM Ba
T1 construct: expressed in transfected cells; host or cells: HEK 293
Description: Antagonist activity was measured using whole cell patch recordings on human embryonic kidney cells either stably or transiently expressing rat α1B+α2δ+β1b channels (N-type channels) with 5 mM barium as a charge carrier. P/Q-type channels (α1A+α2δ+β1b cDNA subunits) and L-type channels (α1C+α2δ+β1b cDNA subunits) were also transiently expressed in HEK 293 cells.
For transient expression, host cells, such as human embryonic kidney cells, HEK 293 (ATCC# CRL 1573) were grown in standard DMEM medium supplemented with 2 mM glutamine and 10% fetal bovine serum. HEK 293 cells were transfected by a standard calcium-phosphate-DNA coprecipitation method using the rat α1B+β1b+α2δ N-type calcium channel subunits in a vertebrate expression vector (for example, see Current Protocols in Molecular Biology).
After an incubation period of from 24 to 72 hrs the culture medium was removed and replaced with external recording solution (see below). Whole cell patch clamp experiments were performed using an Axopatch 200B amplifier (Axon Instruments, Burlingame, Calif.) linked to an IBM compatible personal computer equipped with pCLAMP software. Borosilicate glass patch pipettes (Sutter Instrument Co., Novato, Calif.) were polished (Microforge, Narishige, Japan) to a resistance of about 4 MΩ when filled with cesium methanesulfonate internal solution (composition in MM: 109 CsCH3 SO4, 4 MgCl2, 9 EGTA, 9 HEPES, pH 7.2). Cells were bathed in 5 mM Ba^++ (in mM: 5 BaCl2, 1 MgCl2, 10 HEPES, 40 tetraethylammonium chloride, 10 glucose, 87.5 CsCl pH 7.2). […] Drugs were perfused directly into the vicinity of the cells using a microperfusion system.
Normalized dose-response curves were fit (Sigmaplot 4.0, SPSS Inc., Chicago, Ill.) by the Hill equation to determine IC50 values. Steady-state inactivation curves were plotted as the normalized test pulse amplitude following 5 s inactivating prepulses at +10 mV increments. Inactivation curves were fit (Sigmaplot 4.0) with the Boltzman equation, Ipeak (normalized)=1/(1+exp((V−Vh)z/25.6)), where V and Vh are the conditioning and half inactivation potentials, respectively, and z is the slope factor.
N-type calcium channel blocking activity was assayed in human embryonic kidney cells, HEK 293, stably transfected with the rat brain N-type calcium channel subunits (α1B+α2δ+β1b cDNA subunits). Alternatively, N-type calcium channels (α1B+α2δ+β1b cDNA subunits), L-type channels (α1C+α2δ+β1b cDNA subunits) and P/Q-type channels (α1A+α2δ+β1b cDNA subunits) were transiently expressed in HEK 293 cells. Briefly, cells were cultured in Dulbecco's modified eagle medium (DMEM) supplemented with 10% fetal bovine serum, 200 U/ml penicillin and 0.2 mg/ml streptomycin at 37° C. with 5% CO2. At 85% confluency cells were split with 0.25% trypsin/1 mM EDTA and plated at 10% confluency on glass coverslips. At 12 hours the medium was replaced and the cells transiently transfected using a standard calcium phosphate protocol and the appropriate calcium channel cDNA's. Fresh DMEM was supplied and the cells transferred to 28° C./5% CO2. Cells were incubated for 1 to 2 days to whole cell recording.
Whole cell patch clamp experiments were performed using an Axopatch 200B amplifier (Axon Instruments, Burlingame, Calif.) linked to a personal computer equipped with pCLAMP software. The external and internal recording solutions contained, respectively, 5 mM BaCl2, […], 10 mM HEPES, 40 mM TEACl, 10 mM glucose, 87.5 mM CsCl (pH 7.2) and 108 mM CsMS, 4 mM MgCl2, 9 mM EGTA, 9 mM HEPES (pH 7.2). Currents were typically elicited from a holding potential of −80 mV to +10 mV using Clampex software (Axon Instruments).

[2] = target: T2, human α1G T-type channels (Homo sapiens, UniProt O43497); test: Block of α1G T-type channels, whole-cell patch clamp in HEK cells; assay type: cell-based
T2 construct: expressed in transfected cells
Description: Standard patch-clamp techniques were employed to identify blockers of T-type currents. Briefly, previously described HEK cell lines stably expressing human α1G T-type channels were used for all the recordings (passage #: 4-20, 37° C., 5% CO2). To obtain T-type currents, plastic dishes containing semi-confluent cells were positioned on the stage of a ZEISS AXIOVERT S100 microscope after replacing the culture medium with external solution (see below). Whole-cell patches were obtained using pipettes (borosilicate glass with filament, O.D.: 1.5 mm, I.D.: 0.86 mm, 10 cm length), fabricated on a SUTTER P-97 puller with resistance values of ˜5 MΩ (see below for internal solution).
In the non-inactivating protocol, the holding potential is set at −110 mV and with a pre-pulse at −100 mV for 1 second prior to the test pulse at −40 mV for 50 ms. […]
Test compounds were dissolved in external solution, 0.1-0.01% DMSO. After ˜10 min rest, they were applied by gravity close to the cell using a WPI microfil tubing. The “non-inactivated” pre-pulse was used to examine the resting block of a compound. The “inactivated” protocol was employed to study voltage-dependent block. However, the initial data shown below were mainly obtained using the non-inactivated protocol only. IC50 values are shown for various compounds of the invention in Table 6.

[3] = low frequency stimulation 0.067 Hz (tonic block), read-out: IC50 at 0.067 Hz
[4] = pulse frequency 0.2 Hz (frequency dependent block), read-out: IC50 at 0.2 Hz
[5] = inactivation protocol (voltage-dependent block), read-out: IC50 at −80 mV
[6] = non-inactivating protocol, pre-pulse −100 mV (resting block), read-out: IC50 at −100 mV

T1 sequence (Q02294 whole entry): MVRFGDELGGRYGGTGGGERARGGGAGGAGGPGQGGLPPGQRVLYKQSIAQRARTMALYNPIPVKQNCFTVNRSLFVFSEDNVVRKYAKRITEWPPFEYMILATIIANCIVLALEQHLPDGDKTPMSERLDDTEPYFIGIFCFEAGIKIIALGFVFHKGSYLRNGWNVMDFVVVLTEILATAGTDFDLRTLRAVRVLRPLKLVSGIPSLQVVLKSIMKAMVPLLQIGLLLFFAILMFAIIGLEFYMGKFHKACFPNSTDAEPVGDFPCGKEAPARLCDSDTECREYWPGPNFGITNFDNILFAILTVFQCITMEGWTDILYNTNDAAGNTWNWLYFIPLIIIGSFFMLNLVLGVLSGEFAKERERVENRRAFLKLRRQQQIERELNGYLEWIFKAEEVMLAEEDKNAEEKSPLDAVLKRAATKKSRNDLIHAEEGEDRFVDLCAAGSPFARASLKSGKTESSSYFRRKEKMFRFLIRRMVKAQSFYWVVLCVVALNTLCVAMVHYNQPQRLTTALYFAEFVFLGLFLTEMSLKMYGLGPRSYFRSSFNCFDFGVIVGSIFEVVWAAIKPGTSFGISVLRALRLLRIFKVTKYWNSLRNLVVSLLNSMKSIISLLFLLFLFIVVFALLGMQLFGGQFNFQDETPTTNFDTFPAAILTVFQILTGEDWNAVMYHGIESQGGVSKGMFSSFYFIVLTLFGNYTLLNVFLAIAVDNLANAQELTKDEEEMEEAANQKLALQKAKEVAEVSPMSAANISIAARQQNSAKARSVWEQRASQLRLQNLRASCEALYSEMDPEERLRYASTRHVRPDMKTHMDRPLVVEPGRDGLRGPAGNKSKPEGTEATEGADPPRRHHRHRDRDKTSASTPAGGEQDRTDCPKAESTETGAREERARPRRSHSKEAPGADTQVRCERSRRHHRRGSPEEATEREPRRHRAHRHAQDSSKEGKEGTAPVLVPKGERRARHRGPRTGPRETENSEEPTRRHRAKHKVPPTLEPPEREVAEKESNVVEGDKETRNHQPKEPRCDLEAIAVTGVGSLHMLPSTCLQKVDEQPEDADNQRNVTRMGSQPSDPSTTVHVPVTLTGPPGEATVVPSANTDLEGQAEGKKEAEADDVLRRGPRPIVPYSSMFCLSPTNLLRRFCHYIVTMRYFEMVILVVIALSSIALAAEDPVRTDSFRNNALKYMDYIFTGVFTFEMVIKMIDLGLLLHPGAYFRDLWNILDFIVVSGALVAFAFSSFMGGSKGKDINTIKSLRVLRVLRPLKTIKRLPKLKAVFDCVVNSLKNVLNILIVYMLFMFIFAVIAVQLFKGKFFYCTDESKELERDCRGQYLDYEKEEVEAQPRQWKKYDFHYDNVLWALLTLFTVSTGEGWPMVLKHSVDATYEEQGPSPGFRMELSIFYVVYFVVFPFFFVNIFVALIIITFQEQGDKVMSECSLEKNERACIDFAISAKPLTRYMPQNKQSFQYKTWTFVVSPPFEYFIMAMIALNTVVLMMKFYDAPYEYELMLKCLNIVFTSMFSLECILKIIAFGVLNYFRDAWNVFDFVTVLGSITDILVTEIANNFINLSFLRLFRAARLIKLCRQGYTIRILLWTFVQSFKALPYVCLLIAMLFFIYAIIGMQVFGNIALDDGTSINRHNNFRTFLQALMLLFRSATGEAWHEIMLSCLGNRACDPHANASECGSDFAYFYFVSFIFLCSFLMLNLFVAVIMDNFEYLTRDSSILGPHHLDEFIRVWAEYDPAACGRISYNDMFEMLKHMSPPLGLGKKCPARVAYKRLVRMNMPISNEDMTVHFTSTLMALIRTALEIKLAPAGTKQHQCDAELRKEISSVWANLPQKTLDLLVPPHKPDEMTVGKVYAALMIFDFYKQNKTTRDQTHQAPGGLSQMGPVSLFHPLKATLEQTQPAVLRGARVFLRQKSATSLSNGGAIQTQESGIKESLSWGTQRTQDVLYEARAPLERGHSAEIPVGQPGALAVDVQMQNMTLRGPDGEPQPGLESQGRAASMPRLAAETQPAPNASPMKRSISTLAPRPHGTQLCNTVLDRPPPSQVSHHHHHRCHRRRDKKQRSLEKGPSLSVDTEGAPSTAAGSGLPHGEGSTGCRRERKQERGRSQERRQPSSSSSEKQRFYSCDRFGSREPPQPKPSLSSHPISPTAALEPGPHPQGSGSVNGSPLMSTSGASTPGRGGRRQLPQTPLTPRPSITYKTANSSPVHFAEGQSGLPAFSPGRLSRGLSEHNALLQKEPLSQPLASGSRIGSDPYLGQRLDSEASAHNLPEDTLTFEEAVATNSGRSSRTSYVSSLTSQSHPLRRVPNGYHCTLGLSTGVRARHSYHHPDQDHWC
T2 sequence (O43497 whole entry): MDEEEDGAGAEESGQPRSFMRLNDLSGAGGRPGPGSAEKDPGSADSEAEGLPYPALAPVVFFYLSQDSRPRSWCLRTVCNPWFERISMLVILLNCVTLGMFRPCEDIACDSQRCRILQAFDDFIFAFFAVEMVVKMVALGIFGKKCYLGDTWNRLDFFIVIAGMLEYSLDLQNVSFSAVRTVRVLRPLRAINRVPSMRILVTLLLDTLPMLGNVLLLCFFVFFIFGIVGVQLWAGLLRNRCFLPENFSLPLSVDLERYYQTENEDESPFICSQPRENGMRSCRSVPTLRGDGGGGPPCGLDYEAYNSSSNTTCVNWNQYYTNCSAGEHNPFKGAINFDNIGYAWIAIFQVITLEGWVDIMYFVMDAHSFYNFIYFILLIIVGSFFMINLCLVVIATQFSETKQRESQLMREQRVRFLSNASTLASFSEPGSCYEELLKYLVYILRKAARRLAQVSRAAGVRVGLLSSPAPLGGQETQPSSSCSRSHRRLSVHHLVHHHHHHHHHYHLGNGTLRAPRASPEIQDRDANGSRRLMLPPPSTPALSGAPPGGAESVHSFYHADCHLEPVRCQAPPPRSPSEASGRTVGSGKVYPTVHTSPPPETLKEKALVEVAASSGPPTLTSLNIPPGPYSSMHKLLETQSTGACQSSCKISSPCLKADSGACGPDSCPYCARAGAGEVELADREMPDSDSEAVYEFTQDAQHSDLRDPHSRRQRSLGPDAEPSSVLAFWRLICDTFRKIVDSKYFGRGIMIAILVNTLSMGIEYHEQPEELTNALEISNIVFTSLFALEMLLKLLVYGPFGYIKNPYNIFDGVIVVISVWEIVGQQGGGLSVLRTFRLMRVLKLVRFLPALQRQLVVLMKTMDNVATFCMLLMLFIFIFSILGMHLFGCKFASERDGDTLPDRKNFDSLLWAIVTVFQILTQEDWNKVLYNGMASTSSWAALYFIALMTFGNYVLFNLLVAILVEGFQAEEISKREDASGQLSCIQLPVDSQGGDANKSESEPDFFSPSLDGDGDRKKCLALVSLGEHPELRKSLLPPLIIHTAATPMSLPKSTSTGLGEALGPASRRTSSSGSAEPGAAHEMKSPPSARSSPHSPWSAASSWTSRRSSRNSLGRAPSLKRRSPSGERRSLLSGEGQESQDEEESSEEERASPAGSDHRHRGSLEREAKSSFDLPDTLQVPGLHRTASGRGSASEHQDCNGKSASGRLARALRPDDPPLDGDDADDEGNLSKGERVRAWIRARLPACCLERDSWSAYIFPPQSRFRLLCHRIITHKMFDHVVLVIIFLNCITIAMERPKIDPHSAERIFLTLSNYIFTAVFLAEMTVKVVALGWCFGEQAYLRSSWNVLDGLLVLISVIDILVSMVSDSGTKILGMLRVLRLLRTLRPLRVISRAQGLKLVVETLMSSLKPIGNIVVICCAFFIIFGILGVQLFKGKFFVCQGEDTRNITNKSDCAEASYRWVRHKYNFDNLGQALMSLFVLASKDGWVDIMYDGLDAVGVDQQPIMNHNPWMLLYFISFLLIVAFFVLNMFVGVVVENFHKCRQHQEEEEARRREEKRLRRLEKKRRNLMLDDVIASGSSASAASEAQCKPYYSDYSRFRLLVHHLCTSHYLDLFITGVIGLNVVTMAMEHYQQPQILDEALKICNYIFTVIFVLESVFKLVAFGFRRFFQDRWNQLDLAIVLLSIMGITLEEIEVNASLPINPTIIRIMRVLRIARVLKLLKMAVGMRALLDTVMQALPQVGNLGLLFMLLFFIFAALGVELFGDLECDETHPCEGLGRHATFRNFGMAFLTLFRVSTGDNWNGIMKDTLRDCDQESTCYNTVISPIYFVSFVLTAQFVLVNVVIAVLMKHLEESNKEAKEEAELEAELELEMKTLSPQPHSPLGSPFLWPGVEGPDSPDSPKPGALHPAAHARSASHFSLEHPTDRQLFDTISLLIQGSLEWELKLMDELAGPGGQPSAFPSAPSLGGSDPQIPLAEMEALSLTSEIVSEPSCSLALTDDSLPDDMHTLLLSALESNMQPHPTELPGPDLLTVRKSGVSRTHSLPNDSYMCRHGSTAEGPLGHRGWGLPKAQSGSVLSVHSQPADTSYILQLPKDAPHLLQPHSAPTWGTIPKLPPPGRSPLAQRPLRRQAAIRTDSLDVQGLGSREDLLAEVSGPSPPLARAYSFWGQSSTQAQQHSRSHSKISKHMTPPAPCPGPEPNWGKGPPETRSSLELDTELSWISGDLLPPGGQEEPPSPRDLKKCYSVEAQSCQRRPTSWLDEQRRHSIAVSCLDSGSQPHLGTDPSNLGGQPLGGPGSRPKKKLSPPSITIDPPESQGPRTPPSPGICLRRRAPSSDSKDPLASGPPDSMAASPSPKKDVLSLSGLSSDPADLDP

IC50 [1, 3] [nM] | IC50 [1, 4] [nM] | IC50 [2, 5] [nM] | IC50 [2, 6] [nM] | IC50 at −100 mV ([2]; non-inactivating protocol, pre-pulse −100 mV (resting block)) | Compound
61 | – | – | – | – | O=C(CC(c1ccccc1)c1ccccc1)NCC1CCN(C(c2ccccc2)c2ccccc2)C1 (stereo not shown) [Compound P1]
1070 | 840 | 52 | 326 | – | O=C(CC(c1ccccc1)c1ccccc1)N1CCC(CNC(c2ccccc2)c2ccccc2)C1 (stereo not shown) [Compound P2]
417 | – | – | 86 | – | COc1cc(C(=O)NCC2CCN(C(=O)CCCCC(c3ccc(F)cc3)c3ccc(F)cc3)C2)cc(OC)c1OC (stereo not shown) [Compound P3]
400 | – | – | – | – | COc1cc(CNCC2CCN(CCCCCC(c3ccc(F)cc3)c3ccc(F)cc3)C2)cc(OC)c1OC (stereo not shown) [Compound P4]
59 | – | – | – | No effect | COc1cc(C(=O)N2CCC(CNC(=O)CCCCC(c3ccc(F)cc3)c3ccc(F)cc3)C2)cc(OC)c1OC (stereo not shown) [Compound P5]
212 | – | – | – | – | COc1cc(CN2CCC(CNCCCCCC(c3ccc(F)cc3)c3ccc(F)cc3)C2)cc(OC)c1OC (stereo not shown) [Compound P6]
49 | – | – | – | – | CC(C)(C)c1cc(C(=O)NCC2CCN(C(=O)CCCCC(c3ccc(F)cc3)c3ccc(F)cc3)C2)cc(C(C)(C)C)c1O (stereo not shown) [Compound P7]
35 | – | – | – | – | CC(C)(C)c1cc(CNCC2CCN(CCCCCC(c3ccc(F)cc3)c3ccc(F)cc3)C2)cc(C(C)(C)C)c1O (stereo not shown) [Compound P8]
15 | – | – | – | – | CC(C)(C)c1cc(C(=O)N2CCC(CNC(=O)CCCCC(c3ccc(F)cc3)c3ccc(F)cc3)C2)cc(C(C)(C)C)c1O (stereo not shown) [Compound P9]
10 | – | – | 27 | – | COc1c(C(C)(C)C)cc(C(=O)N2CCC(CNC(=O)CCCCC(c3ccc(F)cc3)c3ccc(F)cc3)C2)cc1C(C)(C)C (stereo not shown) [Compound P11]
32 | – | – | – | – | COc1c(C(C)(C)C)cc(CN2CCC(CNCCCCCC(c3ccc(F)cc3)c3ccc(F)cc3)C2)cc1C(C)(C)C (stereo not shown) [Compound P12]
39 | – | – | – | – | COc1c(C(C)(C)C)cc(CNCC2CCN(CCCCCC(c3ccc(F)cc3)c3ccc(F)cc3)C2)cc1C(C)(C)C (stereo not shown) [Compound P14]
> 1000 | – | – | > 10000 | – | O=C(NCC1CCN(C(=O)CCCCC(c2ccc(F)cc2)c2ccc(F)cc2)C1)c1cc(Br)c(O)c(Br)c1 (stereo not shown) [Compound P15]
28 | – | – | – | – | CC(C)(C)c1cc(CNCC2CCN(CCCCCC(c3ccc(F)cc3)c3ccc(F)cc3)C2)cc(C(C)(C)C)c1 (stereo not shown) [Compound P18]
– | – | – | 70 | – | COc1c(C(C)(C)C)cc(C(=O)NCC2CCN(CCCCCC(c3ccc(F)cc3)c3ccc(F)cc3)C2)cc1C(C)(C)C (stereo not shown) [Compound P19]
450 | 280 | – | – | – | COc1cc(C(=O)NCC2CCN(CCCCCC(c3ccc(F)cc3)c3ccc(F)cc3)C2)cc(OC)c1OC (stereo not shown) [Compound P20]
210 | 150 | – | – | – | O=C(NCC1CCN(CCCCCC(c2ccc(F)cc2)c2ccc(F)cc2)C1)c1cc(C(F)(F)F)cc(C(F)(F)F)c1 (stereo not shown) [Compound P21]
410 | 200 | – | – | – | CN(C)CCOc1c(C(C)(C)C)cc(C(=O)N2CCC(CNC(=O)CCCCC(c3ccc(F)cc3)c3ccc(F)cc3)C2)cc1C(C)(C)C (stereo not shown) [Compound P23]

IC50 [1, 3] [nM] | IC50 [1, 4] [nM] | IC50 [2, 5] [nM] | IC50 [2, 6] [nM] | IC50 at −100 mV ([2]; non-inactivating protocol, pre-pulse −100 mV (resting block)) | Compound
263 | 236 | 42 | 137 | – | O=C(CC(c1ccccc1)c1ccccc1)NCC1CCN(C(c2ccccc2)c2ccc(Cl)cc2)C1 (stereo not shown) [Compound P26]
563 | 220 | 196 | 460 | – | O=C(COc1ccc(F)cc1F)NCC1CCN(C(=O)CCCCC(c2ccc(F)cc2)c2ccc(F)cc2)C1 (stereo not shown) [Compound P31]
100 | 20 | 12 | 30 | – | O=C(COc1ccc(Cl)cc1)NCC1CCN(C(=O)CCCCC(c2ccc(F)cc2)c2ccc(F)cc2)C1 (stereo not shown) [Compound P36]
23 | 8 | 28 | 111 | – | O=C(CC(c1ccccc1)c1ccccc1)NCC1CCN(C(c2ccccc2)c2ccccc2Cl)C1 (stereo not shown) [Compound P37]
80 | 24 | 21 | 94 | – | O=C(CC(c1ccccc1)c1ccccc1)NCC1CCN(C(c2ccccc2)c2cccc(Cl)c2)C1 (stereo not shown) [Compound P38]
179 | 257 | 3 | 12 | – | O=C(CC(c1ccccc1)c1ccccc1)NCC1CCN(C(c2ccccc2)c2ccc(C(F)(F)F)cc2)C1 (stereo not shown) [Compound P39]
19 | 3 | 105 | 328 | – | Cc1cc(C)cc(NCC(=O)NCC2CCN(C(=O)CCCCC(c3ccc(F)cc3)c3ccc(F)cc3)C2)c1 (stereo not shown) [Compound P40]
– | – | 59 | 94 | – | COc1c(C(C)(C)C)cc(C(=O)NCC2CCN(C(=O)CCCCC(c3ccc(F)cc3)c3ccc(F)cc3)C2)cc1C(C)(C)C (stereo not shown) [Compound P42]
265 | 119 | 29 | 52 | – | CC(C)(C)c1cc(C(=O)NCC2CCN(C(=O)CCCCC(c3ccc(F)cc3)c3ccc(F)cc3)C2)cc(C(C)(C)C)c1 (stereo not shown) [Compound P44]
512 | 247 | 67 | 410 | – | O=C(CN(c1ccccc1)c1ccccc1)NCC1CCN(C(c2ccccc2)c2ccccc2)C1 (stereo not shown) [Compound P45]
7 | 1 | 5 | 23 | – | O=C(CN(CC(=O)N(c1ccccc1)c1ccccc1)CC1CCN(C(c2ccccc2)c2ccccc2)C1)N(c1ccccc1)c1ccccc1 (stereo not shown) [Compound P46]
76 | 53 | – | – | – | O=C(CC(c1ccc(F)cc1)c1ccc(F)cc1)NCC1CCN(C(c2ccccc2)c2ccc(F)cc2)C1 (stereo not shown) [Compound P50]
72 | 56 | – | – | – | O=C(CC(c1ccc(F)cc1)c1ccc(F)cc1)NCC1CCN(C(c2ccccc2)c2ccccc2)C1 (stereo not shown) [Compound P51]
135 | 110 | – | – | – | CC(C)(C)c1ccc(C(c2ccccc2)N2CCC(CNC(=O)CC(c3ccc(F)cc3)c3ccc(F)cc3)C2)cc1 (stereo not shown) [Compound P52]
223 | 157 | – | – | – | CN(CC1CCN(C(c2ccccc2)c2ccccc2)C1)C(=O)CC(c1ccccc1)c1ccccc1 (stereo not shown) [Compound P53]
137 | 92 | – | – | – | CN(CCC(c1ccccc1)c1ccccc1)CC1CCN(C(c2ccccc2)c2ccccc2)C1 (stereo not shown) [Compound P56]
380 | 330 | – | – | – | COc1cc(C(=O)N2CCC(CN(C)CCCCCC(c3ccc(F)cc3)c3ccc(F)cc3)C2)cc(OC)c1OC (stereo not shown) [Compound P63]
